{
  "source": "patent US20060020042A1",
  "about": "“Memantine for the treatment of mild and mild to moderate Alzheimer's disease” (Forest Laboratories, Inc., priority 2004, published 2006)",
  "key": {"[1]": {"tested_on": "brain glucose metabolism in mild-to-moderate AD subjects", "experiment": "FDG PET regional brain glucose metabolism", "assay_type": "in vivo, human", "settings": "24 weeks of 20 mg/day", "experimental": "Drug treatment. As stated above, patients were randomized to receive 20 mg/day (10 b.i.d.) memantine or placebo for 24 weeks. PET scans were performed for 10 (5 receiving memantine and 5 receiving placebo) patients at baseline and at the end of week 24.\nPET Scan Acquisition. Subjects were PET scanned at the University of California, Irvine Brain Imaging Center using a GE 2048-15B dedicated head scanner. Thirty slices at 6.5-mm intervals (15 in each of two sets) were obtained so as to cover the entire brain. Attenuation correction was performed by obtaining a transmission scan using a ^68Ge pin source. A thermosetting plastic facemask was used to hold the subject stationary during the 60 minutes of total image acquisition. Scans were reconstructed with a blank and a transmission scan. PET image count was used for study analyses and adjusted for intrasubject global differences using normalization (proportional scaling).\nPET Image Methodology and Analysis. Differences in regional FDG uptake were analyzed using SPM99 software (Wellcome Department of Cognitive Neurology, London, UK), implemented on the Matlab platform (MathWorks Inc., Sherborn, Mass.). Statistical parametric maps (SPMs) are spatially extended statistical processes that are constructed to test hypotheses about regionally specific effects in neuroimaging data. […]"}, "[2]": {"tested_on": "mild-to-moderate AD subjects", "experiment": "Snodgrass picture naming activation task during PET", "assay_type": "in vivo, human", "experimental": "Snodgrass Picture Naming Task. […] In the present invention, all patients who were subjected to PET scanning were evaluated during imaging using the Snodgrass picture naming activation task, The use of a task during the FDG uptake was used to image increases in the hippocampus and temporal lobe. This Snodgrass Picture Naming activation task was sensitive to object naming, which is impaired in mild to moderate AD. The Snodgrass picture naming activation task and performance analysis was based, in part, on the speed of identification and articulation of the name that corresponds to a set of 260 pictures (Snodgrass and Vanderwart, J. Experimental Psychology: Human Learning and Memory 1980; 6(2): 174-215). The pictures are black-and-white line drawings executed according to a set of rules that provide consistency of pictorial representation. The pictures were standardized on four variables of central relevance to memory and cognitive processing: […]"}},
  "data": [
    {"compound": "CC12CC3CC(C)(C1)CC(N)(C3)C2", "note": "[Memantine, 1-amino-3,5-dimethyladamantane]", "values": [
      {"measurement": "regional brain glucose metabolic activity (FDG PET) compared to baseline", "setting": "[1]; 5 patients, CNS incl. cerebral cortex, cerebellum, brainstem, p<0.025", "result": "metabolic increases"},
      {"measurement": "regional brain glucose metabolism (FDG PET) compared to baseline", "setting": "[1]; isolated region of left visual cortex and left putamen", "result": "decreases in glucose metabolism"},
      {"measurement": "difference in Snodgrass performance between the two treatment groups", "setting": "[2]; memantine vs placebo", "result": "no significant difference"},
      {"measurement": "Snodgrass picture naming activation task performance", "setting": "[2]; memantine-treated subjects during PET", "result": "better than chance"}
    ]}
  ]
}
